Test results as given in publication PMC6213900, “Design, Synthesis, and Cytotoxic Analysis of Novel Hederagenin–Pyrazine Derivatives Based on Partial Least Squares Discriminant Analysis” (International Journal of Molecular Sciences, 2018).
Where two headings read alike, the source gives them in different places.

Legend:
[1] = system: A549 (human non-small-cell lung cancer); experiment: MTT cytotoxicity assay, A549; assay type: cell-based; settings: read-out: Half Maximal Inhibitory Concentration (IC50) A549
Protocol: (§1) The cytotoxicity of hederagenin derivatives in vitro was evaluated on three tumor cell lines (A549: human non-small-cell lung cancer; MCF-7: human mammary cancer; HepG2: human hepatocellular carcinoma) using the 3-(4,5-dimethylthiazol-2-yl)-2,5-diphenyltetrazolium bromide (MTT) assay. In addition, their toxicity evaluations were tested on H9c2 (murine heart myoblast) and MDCK (Madin–Darby canine kidney) cells. MCF-7, A549, HepG2, H9c2, and MDCK cells were obtained from the Chinese Academy of Medical Sciences and Peking Union Medical College. All of the cell lines were maintained in Dulbecco’s modified Eagle medium (DMEM) supplemented with 1% (v/v) penicillin/streptomycin and 10% (v/v) fetal bovine serum (FBS; Thermo Technologies, New York, NY, USA) under a humidified atmosphere containing 5% CO2 at 37 °C. The stock solutions of He derivatives were dissolved in dimethyl sulfoxide (DMSO; Sigma, St. Louis, MO, USA) and added at various concentrations to the cell culture. Cellular morphologies were observed using an inverted fluorescence microscope (Olympus IX71, Tokyo, Japan), a plate reader (BIORAD 550 spectrophotometer, Bio-rad Life Science Development Ltd., Beijing, China), and a Canton 2 flow cytometer (BD, New York, NY, USA). The antitumor activity of these compounds were evaluated on MCF-7, A549, HepG2, MDCK, and H9c2 cell lines using the MTT assay. Cells at a density of 3 × 10^3 cells/well were plated in a 96-multiwell plate in DMEM containing 10% FBS for 24 h at 37 °C with 5% CO2. Then, cells were treated for 72 h with the required concentrations (3.125, 6.25, 12.5, 25, or 50 μM) of the compounds and reference drugs (He and DDP) dissolved with the vehicle DMSO. After that, the culture substrate was replaced with 200 μL of DMEM containing 20 μL of MTT solution at 5 mg/mL and incubated for 4 h. The supernatant was removed and the dissolved formazans precipitated with 120 μL of DMSO. Wells without drugs were used as blanks. A plate reader was used to determine the absorbance at 490 nm. The above steps were repeated three times. The IC50 values were defined as the concentration of the compound which gave 50% growth inhibition, and they were calculated using Graph Pad Prism 5. The inhibition rate was calculated using the following formula, where OD is the optical density:% inhibition = 1 − (Sample group OD/Control group OD) × 100%. (1)

[2] = system: MCF-7 (human mammary cancer); experiment: MTT cytotoxicity assay, MCF-7; assay type: cell-based; settings: read-out: Half Maximal Inhibitory Concentration (IC50) MCF-7
Protocol: as §1

[3] = system: HepG2 (human hepatocellular carcinoma); experiment: MTT cytotoxicity assay, HepG2; assay type: cell-based; settings: MTT, 72 h treatment, read-out: Half Maximal Inhibitory Concentration (IC50) HepG2
Protocol: as §1

[4] = system: MDCK (Madin–Darby canine kidney) cells; experiment: MTT toxicity evaluation, MDCK; assay type: cell-based; settings: 72 h treatment, non-tumor cells, read-out: Half Maximal Inhibitory Concentration (IC50) MDCK
Protocol: as §1

[5] = system: H9c2 (murine heart myoblast); experiment: MTT toxicity evaluation, H9c2; assay type: cell-based; settings: non-tumor cells, read-out: Half Maximal Inhibitory Concentration (IC50) H9c2
Protocol: as §1

[6] = Homo sapiens, A549, 72 h treatment
[7] = Homo sapiens, MCF7, 72 h treatment

With `CC1(C)CC[C@]2(C(=O)OCc3cnccn3)CC[C@]3(C)C(=CCC4[C@@]5(C)CC[C@H](O)[C@@](C)(CO)C5CC[C@]43C)C2C1` (stereo partly drawn) [Compound 1, Pyrazin-2-ylmethyl(4aS,6aS,6bR,9R,10S,12aR)-10-hydroxy-9-(hydroxymethyl)-2,2,6a,6b,9,12a-hexamethyl-1,3,4,5,6,6a,6b,7,8,8a,9,10,11,12,12a,12b,13,14b-octadecahydropicene-4a(2H)-carboxylate] the IC50 [1, 6] was 17.6 ± 0.37 µM, the IC50 [2, 7] was 16.05 ± 0.01 µM and the IC50 ([3]; Homo sapiens, HepG2) was 18.79 ± 0.04 µM. The IC50 ([4]; Canis lupus familiaris, MDCK) was 18.1 ± 0.25 µM, the IC50 ([5]; H9c2, 72 h treatment) was 14.7 ± 0.51 µM and the melting point was 146.8 °C.
`Cc1cncc(COC(=O)[C@]23CCC(C)(C)CC2C2=CCC4[C@@]5(C)CC[C@H](O)[C@@](C)(CO)C5CC[C@@]4(C)[C@]2(C)CC3)n1` (stereo partly drawn) [Compound 2, (6-Methylpyrazin-2-yl)methyl(4aS,6aS,6bR,9R,10S,12aR)-10-hydroxy-9-(hydroxymethyl)-2,2,6a,6b,9,12a-hexamethyl-1,3,4,5,6,6a,6b,7,8,8a,9,10,11,12,12a,12b,13,14b-octadecahydropicene-4a(2H)-carboxylate] gave an IC50 [1, 6] of 20.6 ± 0.29 µM, an IC50 [2, 7] of 15.8 ± 0.22 µM and an IC50 ([3]; Homo sapiens, HepG2) of 27.2 ± 1.82 µM. For the same compound, the IC50 ([4]; Canis lupus familiaris, MDCK) was 26.7 ± 1.64 µM, the IC50 ([5]; H9c2, 72 h treatment) was 25.1 ± 0.43 µM and the melting point was 107 °C.
`Cc1cnc(COC(=O)[C@]23CCC(C)(C)CC2C2=CCC4[C@@]5(C)CC[C@H](O)[C@@](C)(CO)C5CC[C@@]4(C)[C@]2(C)CC3)cn1` (stereo partly drawn) [Compound 3, (5-Methylpyrazin-2-yl)methyl(4aS,6aS,6bR,9R,10S,12aR)-10-hydroxy-9-(hydroxymethyl)-2,2,6a,6b,9,12a-hexamethyl-1,3,4,5,6,6a,6b,7,8,8a,9,10,11,12,12a,12b,13,14b-octadecahydropicene-4a(2H)-carboxylate] showed an IC50 [1, 6] of 15 ± 0.35 µM, an IC50 [2, 7] of 16.8 ± 9.25 µM and an IC50 ([3]; Homo sapiens, HepG2) of 18.9 ± 0.35 µM. For the same compound, the IC50 ([4]; Canis lupus familiaris, MDCK) was 18.4 ± 3.76 µM, the IC50 ([5]; H9c2, 72 h treatment) was > 30 µM and the melting point was 170.3 °C.
With `Cc1nccnc1COC(=O)[C@]12CCC(C)(C)CC1C1=CCC3[C@@]4(C)CC[C@H](O)[C@@](C)(CO)C4CC[C@@]3(C)[C@]1(C)CC2` (stereo partly drawn) [Compound 4, (3-Methylpyrazin-2-yl)methyl(4aS,6aS,6bR,9R,10S,12aR)-10-hydroxy-9-(hydroxymethyl)-2,2,6a,6b,9,12a-hexamethyl-1,3,4,5,6,6a,6b,7,8,8a,9,10,11,12,12a,12b,13,14b-octadecahydropicene-4a(2H)-carboxylate] the IC50 [1, 6] was 17.1 ± 1.06 µM, the IC50 [2, 7] was 17.3 ± 0.48 µM and the IC50 ([3]; Homo sapiens, HepG2) was 25.5 ± 1.4 µM. It also gave an IC50 ([4]; Canis lupus familiaris, MDCK) of 26.1 ± 1.02 µM, an IC50 ([5]; H9c2, 72 h treatment) of 20.4 ± 2.24 µM and a melting point of 170.4 °C.
In the case of `Cc1ncc(COC(=O)[C@]23CCC(C)(C)CC2C2=CCC4[C@@]5(C)CC[C@H](O)[C@@](C)(CO)C5CC[C@@]4(C)[C@]2(C)CC3)nc1C` (stereo partly drawn) [Compound 5, (5,6-Dimethylpyrazin-2-yl)methyl(4aS,6aS,6bR,9R,10S,12aR)-10-hydroxy-9-(hydroxymethyl)-2,2,6a,6b,9,12a-hexamethyl-1,3,4,5,6,6a,6b,7,8,8a,9,10,11,12,12a,12b,13,14b-octadecahydropicene-4a(2H)-carboxylate], the IC50 [1, 6] is reported as 24.4 ± 0.37 µM, the IC50 [2, 7] is reported as > 30 µM and the IC50 ([3]; Homo sapiens, HepG2) is reported as 24.94 ± 0.06 µM. For the same compound, the IC50 ([4]; Canis lupus familiaris, MDCK) was 23.5 ± 0.67 µM, the IC50 ([5]; H9c2, 72 h treatment) was 28.5 ± 0.29 µM and the melting point was > 200 °C.
For `Cc1nc(C)c(COC(=O)[C@]23CCC(C)(C)CC2C2=CCC4[C@@]5(C)CC[C@H](O)[C@@](C)(CO)C5CC[C@@]4(C)[C@]2(C)CC3)nc1C` (stereo partly drawn) [Compound 6, (3,5,6-Trimethylpyrazin-2-yl)methyl(4aS,6aS,6bR,9R,10S,12aR)-10-hydroxy-9-(hydroxymethyl)-2,2,6a,6b,9,12a-hexamethyl-1,3,4,5,6,6a,6b,7,8,8a,9,10,11,12,12a,12b,13,14b-octadecahydropicene-4a(2H)-carboxylate], the IC50 [1, 6] was 25.5 ± 0.26 µM, the IC50 [2, 7] was > 30 µM and the IC50 ([3]; Homo sapiens, HepG2) was > 30 µM. The IC50 ([4]; Canis lupus familiaris, MDCK) was 24.1 ± 0.76 µM, the IC50 ([5]; H9c2, 72 h treatment) was > 30 µM and the melting point was 127.8 °C.
With `CC1(C)CC[C@]2(C(=O)OCCO)CC[C@]3(C)C(=CCC4[C@@]5(C)CC[C@H](O)[C@@](C)(CO)C5CC[C@]43C)C2C1` (stereo partly drawn) [Compound 7, 2-Hydroxyethyl (4aS,6aS,6bR,9R,10S,12aR)-10-hydroxy-9-(hydroxymethyl)-2,2,6a,6b,9,12a-hexamethyl-1,3,4,5,6,6a,6b,7,8,8a,9,10,11,12,12a,12b,13,14b-octadecahydropicene-4a(2H)-carboxylate] the IC50 [1, 6] was > 30 µM, the IC50 [2, 7] was > 30 µM and the IC50 ([3]; Homo sapiens, HepG2) was > 30 µM. For the same compound, the IC50 ([4]; Canis lupus familiaris, MDCK) was > 30 µM, the IC50 ([5]; H9c2, 72 h treatment) was > 30 µM and the melting point was 246.6 °C.
With `CC1(C)CC[C@]2(C(=O)OCCOC(=O)c3cnccn3)CC[C@]3(C)C(=CCC4[C@@]5(C)CC[C@H](O)[C@@](C)(CO)C5CC[C@]43C)C2C1` (stereo partly drawn) [Compound 8, 2-(((4aS,6aS,6bR,9R,10S,12aR)-10-Hydroxy-9-(hydroxymethyl)-2,2,6a,6b,9,12a-hexamethyl-1,2,3,4,4a,5,6,6a,6b,7,8,8a,9,10,11,12,12a,12b,13,14b-icosahydropicene-4a-carbonyl)oxy)ethylpyrazine-2-carboxylate] the IC50 [1, 6] was 23.9 ± 0.31 µM, the IC50 [2, 7] was 25.35 ± 0.09 µM and the IC50 ([3]; Homo sapiens, HepG2) was 17.4 ± 0.75 µM. It also gave an IC50 ([4]; Canis lupus familiaris, MDCK) of 20.1 ± 0.3 µM, an IC50 ([5]; H9c2, 72 h treatment) of 21.7 ± 0.86 µM and a melting point of 154.7 °C.
With `Cc1cnc(C(=O)OCCOC(=O)[C@]23CCC(C)(C)CC2C2=CCC4[C@@]5(C)CC[C@H](O)[C@@](C)(CO)C5CC[C@@]4(C)[C@]2(C)CC3)cn1` (stereo partly drawn) [Compound 10, 2-(((4aS,6aS,6bR,9R,10S,12aR)-10-Hydroxy-9-(hydroxymethyl)-2,2,6a,6b,9,12a-hexamethyl-1,2,3,4,4a,5,6,6a,6b,7,8,8a,9,10,11,12,12a,12b,13,14b-icosahydropicene-4a-carbonyl)oxy)ethyl-5-methylpyrazine-2-carboxylate] the IC50 [1, 6] was 20.9 ± 0.68 µM, the IC50 [2, 7] was 27.2 ± 2.09 µM and the IC50 ([3]; Homo sapiens, HepG2) was 28.17 ± 0.21 µM. It also gave an IC50 ([4]; Canis lupus familiaris, MDCK) of 25.4 ± 0.28 µM, an IC50 ([5]; H9c2, 72 h treatment) of 19.6 ± 3.29 µM and a melting point of 192.6 °C.
With `Cc1nccnc1C(=O)OCCOC(=O)[C@]12CCC(C)(C)CC1C1=CCC3[C@@]4(C)CC[C@H](O)[C@@](C)(CO)C4CC[C@@]3(C)[C@]1(C)CC2` (stereo partly drawn) [Compound 11, 2-(((4aS,6aS,6bR,9R,10S,12aR)-10-Hydroxy-9-(hydroxymethyl)-2,2,6a,6b,9,12a-hexamethyl-1,2,3,4,4a,5,6,6a,6b,7,8,8a,9,10,11,12,12a,12b,13,14b-icosahydropicene-4a-carbonyl)oxy)ethyl-3-methylpyrazine-2-carboxylate] the IC50 [1, 6] was 14.12 ± 0.01 µM, the IC50 [2, 7] was 27.3 ± 0.57 µM and the IC50 ([3]; Homo sapiens, HepG2) was 14.84 ± 0.03 µM. The IC50 ([4]; Canis lupus familiaris, MDCK) was 18.64 ± 0.18 µM, the IC50 ([5]; H9c2, 72 h treatment) was 14.7 ± 0.16 µM and the melting point was 146.8 °C.
For `CC1(C)CC[C@]2(C(=O)OCCCCCl)CC[C@]3(C)C(=CCC4[C@@]5(C)CC[C@H](O)[C@@](C)(CO)C5CC[C@]43C)C2C1` (stereo partly drawn) [Compound 20], the IC50 [1, 6] was > 30 µM, the IC50 [2, 7] was > 30 µM and the IC50 ([3]; Homo sapiens, HepG2) was > 30 µM. For the same compound, the IC50 ([4]; Canis lupus familiaris, MDCK) was > 30 µM and the IC50 ([5]; H9c2, 72 h treatment) was > 30 µM.
In the case of `N.N.[Cl][Pt][Cl]` [DDP, cisplatin, reference compound], the IC50 ([1]; 72 h treatment) is reported as 3.85 ± 0.63 µM, the IC50 ([2]; 72 h treatment) is reported as 5.17 ± 0.28 µM and the IC50 [3] is reported as 3.42 ± 0.68 µM. It also gave an IC50 [4] of 9.97 ± 1.12 µM and an IC50 ([5]; 72 h treatment) of 5.31 ± 0.26 µM.
In the case of `CC1(C)CC[C@]2(C(=O)O)CC[C@]3(C)C(=CC[C@@H]4[C@@]5(C)CC[C@H](O)[C@@](C)(CO)[C@@H]5CC[C@]43C)[C@@H]2C1` [He, Hederagenin], the IC50 [1, 6] is reported as > 50 µM, the IC50 [2, 7] is reported as > 50 µM and the IC50 ([3]; Homo sapiens, HepG2) is reported as > 50 µM. For the same compound, the IC50 ([4]; Canis lupus familiaris, MDCK) was > 50 µM and the IC50 ([5]; H9c2, 72 h treatment) was > 50 µM.
